# Laboratory results taken from patent US12024721B2, “Method of differentiating human pluripotent stem cells to podocytes” (Wisconsin Alumni Research Foundation, priority 2017, dated 2024).
# B1: BMP7: bone morphogenetic protein, exogenous growth factor (protein, UniProt P18075 293-431, looked up)
# Bone morphogenetic protein 7: STGSKQRSQNRSKTPKNQEALRMANVAENSSSDQRQACKKHELYVSFRDLGWQDWIIAPEGYAAYYCEGECAFPLNSYMNATNHAIVQTLVHFINPETVPKPCCAPTQLNAISVLYFDDSSNVILKKYRNMVVRACGCH
# Experiments:
# [1] = tested on: hPSCs; details: 6 μM, undifferentiated hPSCs, serum-free and albumin-free medium, after 24 hours; cited from earlier work
# [2] = tested on: hPSCs; assay: Primitive streak induction of hPSCs by Wnt activation (brachyury immunofluorescence / flow cytometry); format: cell-based, human
# Protocol: Thus, as a first step toward differentiating hPSCs into podocytes, induced hPSCs (iPSCs) were seeded on a Matrigel®-coated surface at a density of ˜2×10^4 cells/cm^2 in mTeSR®1. After 3 days of expansion to a density of 6×10^4 cells/cm^2, the hPSCs were treated with 6 μM CHIR99201 for 48 hr in serum-free and albumin-free podocyte medium 1 (PM1: DMEM/F12, 1% MEM-NEAA, 0.5% GlutaMAX, 0.1 mM β-mercaptoethanol) (FIG. 1A). […] After 48 hr CHIR99201 treatment in PM1, the medium was switched to serum-free podocyte medium 2 (PM2: human endothelial serum-free medium (hESFM), 2% B-27®) and cultured to day 16. The kinetics of primitive streak induction were assessed by immunofluorescence and qRT-PCR. […] At day 0, differentiation was initiated by treating cells with 6 μM CHIR99021 (Selleckchem) in podocyte medium 1 (PM1): DMEM/Ham's F12 (Thermo Fisher), 100×MEM nonessential amino acids (Thermo Fisher), 200× GlutaMAX (Thermo Fisher), and 0.1 mM β-mercaptoethanol (Sigma) for 2 days. After 48 hr, medium was changed to podocyte medium 2 (PM2): human Endothelial Serum-Free Medium (hESFM) (Thermo Fisher) supplemented with 50× B-27®. […] Cells were stained with primary and secondary antibodies diluted in 0.5% BSA plus 0.1% Triton-X 100 as described.^34 Data were collected on a FACS Caliber flow cytometer (Beckton Dickinson) and analyzed using FlowJo®. […]
# [3] = tested on: BMP-induced SMAD1/5/8 phosphorylation; assay: Phosphorylated SMAD Western blot after dorsomorphin treatment of differentiating cells; format: cell-based, human; details: added from days 1-3 of differentiation; P-SMAD at day 3; 0 to 10 μM tested
# Protocol: Singularized IMR90-4 hPSCs were seeded on 12-well plates coated with Matrigel®, Synthemax® or vitronectin and expanded for 3 days in mTeSR®1. Podocyte differentiation was initiated with treatment using 6 μM CHIR (CHIR99021) for 48 h in PM1 followed by treatment with different combinations of 0.1 μM or 1 μM RA, 50 ng/mL BMP7 and 50 ng/mL FGF2 from day 2 to day 6 in PM2. […] (D, E) Expression of phosphorylated SMAD was assessed by Western blot after cells were treated with dorsomorphin (0 μM to 10 μM) from day 1 to day 3 or from day 3 to day 4. […] Data were collected from three independent replicates and are plotted as mean±SEM. *p<0.05. ***p<0.001. […] Cells were dissociated with Accutase® and rinsed with PBS twice before being lysed with RIPA (ROCKLAND) in the presence of 1% Halt Protease and Phosphatase Inhibitor Cocktail (Pierce). Protein concentration was determined by a BCA assay kit (Thermo Fisher) according to manufacturer's instructions. Samples containing 30 μg of total protein were loaded onto pre-cast 10% Tris-Glycine SDS/PAGE gels (Invitrogen) under denaturing conditions and transferred to a nitrocellulose membrane. After blocking with 5% non-fat milk in TBST, the membrane was incubated with primary antibody (Table 1) overnight at 4° C. […]
# [4] = tested on: IMR90-4 hPSCs; assay: WT1 expression at day 6 by Western blot after treatment with BMP7, RA, FGF2 from day 2 to day 6; format: cell-based, human; details: treatment day 2 to day 6 in PM2
# Protocol: FIGS. 3A-3L Wnt signaling activation alone is sufficient to differentiate hPSCs into nephron progenitor cells. (A) Schematic of podocyte differentiation factor identification. Singularized IMR90-4 hPSCs were seeded on 12-well plates coated with Matrigel®, Synthemax® or vitronectin and expanded for 3 days in mTeSR®1. Podocyte differentiation was initiated with treatment using 6 μM CHIR (CHIR99021) for 48 h in PM1 followed by treatment with different combinations of 0.1 μM or 1 μM RA, 50 ng/mL BMP7 and 50 ng/mL FGF2 from day 2 to day 6 in PM2. (B) Cells at day 6 were assessed by Western blot for the expression level of WT1. (C) Expression level was quantified via Image J. The expression was first normalized to β-actin and then compared to WT1 expression in the absence of FGF2, RA and BMP7. (D, E) Expression of phosphorylated SMAD was assessed by Western blot after cells were treated with dorsomorphin (0 μM to 10 μM) from day 1 to day 3 or from day 3 to day 4. (F, G) Expression of BMP7 at day 1 and day 2 was verified by immunofluorescence and Western blot of cell lysate. (H, I) Cells were differentiated in the presence or absence of 1 μM dorsomorphin treatment from day 1 to day 3 and at day 16 were assessed for expression of PAX2 and WT1 by flow cytometry. Data were collected from three independent replicates and are plotted as mean±SEM. *p<0.05. ***p<0.001. […]
# [5] = tested on: IMR90-4 iPSC-derived podocytes; assay: Apoptosis assay: dead cells by trypan blue after TGF-β1; format: cell-based, human; details: 5 or 50 ng/mL, 24 hr, day 16 podocytes; control 2%
# Protocol: (§1) At day 16, cells were treated with 500 ng/mL Ang II for 6 hr and phalloidin staining was used to assess changes in cytoskeletal structure. White arrows indicate the cells with peripheral F-actin. (B) More than 200 cells over 15 images were analyzed and the percentage of cells with peripherally-organized actin was calculated for control and Ang II-treated cells. Data are presented as mean percentage±SEM of three independent experiments over 15 images. Scale bars, 100 μm. (C) At day 16, cells were treated with 5 ng/mL and 50 ng/mL TGF-β1 for 24 hr. Detached cells were collected from the medium and combined with Accutase®-dissociated cells from the substrate. Cells were treated with trypan blue and the numbers of cells incorporating and excluding trypan blue were counted on a hemocytometer. Percentage of dead cells was calculated as the number of cells that incorporated trypan blue divided by the total cell number. […]
# (§2) Podocytes uptake albumin via endocytosis and degrade albumin in lysosomes^52,53. We assessed the ability of day 16 iPSC-derived podocytes to endocytose Alexa Fluor 555-labeled albumin in a temperature-dependent manner. […]
# (§3) Differentiated podocytes at day 16 were treated with 500 ng/ml Ang II for 6 hr or […] TGF-β1 for 24 hr. […] The cells treated with TGF-β1 after 24 hr were assessed by counting dead cells with trypan blue exclusion.
# [6] = tested on: IMR90-4 iPSC-derived podocytes; assay: Contractility assay: actin reorganization (phalloidin staining) after Ang II; format: cell-based, human; details: 500 ng/mL, 6 hr, day 16 podocytes; control about 20%
# Protocol: as §1, §2, §3
molecule,measurement,setting,value
Cc1c[nH]c(-c2cnc(NCCNc3ccc(C#N)cn3)nc2-c2ccc(Cl)cc2Cl)n1 [CHIR99021],population expressing primitive streak markers (prior study),[1],uniform population of cells expressing primitive streak markers
same,"ability alone to direct hPSC lines into intermediate mesoderm, nephron progenitors and mature podocytes","[2]; 6 μM alone, podocyte permissive medium, three different hPSC lines",sufficient
same,cells expressing the primitive streak marker brachyury (positive population),"[2]; 6 μM, 24 hr treatment, PM1, iPSCs on Matrigel",~100%
c1cc(-c2cnn3cc(-c4ccc(OCCN5CCCCC5)cc4)cnc23)ccn1 [dorsomorphin],dorsomorphin concentration at which SMAD phosphorylation was completely inhibited,[3],higher than 5 μM
"FGF2: fibroblast growth factor, exogenous growth factor",effect on WT1 expression in the hPSC-derived podocytes,[4],diminished
TGF-β1: induces cell death in primary and immortalized podocytes,percentage of dead cells (trypan blue uptake),[5],15%
"angiotensin II [Ang II, induces podocyte damage by altering cytoskeletal structure and inducing contractility]",percentage of cells with peripheral actin,[6],Over 50%
B1,effect on WT1 expression in the hPSC-derived podocytes,[4],diminished
